{"source": "patent US20200140383A1", "about": "“2-(4-CHLOROPHENOXY)-N-((1 -(2-(4-CHLOROPHENOXY)ETHYNAZETIDIN-3-YL)METHYL)ACETAMIDE DERIVATIVES AND RELATED COMPOUNDS AS ATF4 INHIBITORS FOR TREATING CANCER AND OTHER DISEASES” (GlaxoSmithKline Intellectual Property Development Limited, priority 2017, published 2020)", "test_system": "ATF4 translation (SH-SY5Y-ATF4-NanoLuc cells)", "assay": "ATF4 cell based assay (ATF4 5'-UTR NanoLuc luciferase reporter, Thapsigargin induced stress)", "settings": "Thapsigargin 200-300 nM for 14-18 hours, average of two or more experimental runs, read-out: average ATF4 pathway inhibitory activity (IC50)", "from_the_text": "The ATF4 reporter assay measures the effect of Thapsigargin induced cellular stress on ATF4 expression. For this reporter assay, a stable cell line was created by transfecting SH-SY5Y cells with a plasmid containing the NanoLuc® luciferase gene fused to the 5′-UTR of ATF4, under the control of the CMV promoter. The ATF4 5′-UTR contains two open reading frames which mediate the cellular stress-dependent translation of the reporter gene. Clones stably expressing the reporter construct were isolated and selected based on the luminescence response to thapsigargin and inhibition of this signal by test compounds. Briefly, SH-SY5Y-ATF4-NanoLuc cells were challenged with Thapsigargin for 14-18 hours to determine the stress effect with or without test compounds.\nCells were propagated in growth media consisting of 90% DMEM F12 (InVitrogen #11320-033), 10% Fetal Bovine Serum (Gibco #10438-026), 5 mM Glutamax (Gibco #35050-061), 5 mM Hepes, (Gibco #15630-080), and 0.5 mg/ml Geneticin (Gibco #10131-027). Cells were prepared for the assay by removing all media from cells, washing the plated cells with phosphate buffered saline, and detached by adding a solution comprised of 10% Tryple express solution (InVitrogen12604-021) and 90% enzyme-free cell dissociation buffer HANKS base (Gibco 13150-016). The trypsin was deactivated by adding assay media comprised of 90% phenol-red free DMEM F12 (InVitrogen, 11039), 10% Fetal Bovine Serum (Gibco #10438-026), (5 mM Glutamax (Gibco #35050-061), 5 mM Hepes, (Gibco #15630-080), and 0.5 mg/ml Geneticin (Gibco #10131-027). Suspended cells were spun down at 300 g for 5 min, the supernatant was removed and the cell pellet was suspended in warm media (30-37° C.) comprised as above but without 10% Fetal Bovine Serum to a concentration of 1e6 cells/mi.\nAssay plates were prepared by adding 250 nL of compound stock solution in 100% DMSO to each well, followed by dispensing 20 microliters/well cell suspension to deliver 15-20 k cell/well. Cells were incubated for 1 hour at 37° C. Then, 5 μL of 1.5 μM or 1 μM of Thapsigargin (final concentration: 200-300 nM) was added to each well of cells. Assay plates containing cells were incubated for 14-18 hours at 37° C.\nThe measurement of luciferase produced by the ATF4 constructs was measured as follows. Aliquots of the Nano-Glo reagent (Nano-Glo® Luciferase Assay Substrate, Promega, N113, Nano-Glo® Luciferase Assay Buffer, Promega, N112 (parts of Nano-Glo® Luciferase Assay System, N1150) were brought to room temperature, the substrate and buffer were mixed according to manufacturer's instructions. The cell plates were equilibrated to room temperature. 25 microliters/well of the mixed Nano-Glo reagent were dispensed into assay wells and pulse spun to settle contents and the plate was sealed with film. The plates were incubated at room temperature for 1 hour before detecting luminescence on an EnVision® plate reader.", "note": "pIC50: −log10 of the molar value. Where “and” joins values, the source holds several entries; their conditions need not be identical. Identical values can stand only once.", "data": [{"molecule": "O=C(COc1ccc(Cl)cc1)NCC1CN(C(=O)COc2ccc(Cl)cc2)C1", "note": "[Example 1, 2-(4-chlorophenoxy)-N-((1-(2-(4-chlorophenoxy)acetyl)azetidin-3-yl)methyl)acetamide]", "values": [{"measurement": "pIC50", "value": "6.00 to 7.00"}]}, {"molecule": "O=C(COc1ccc(Cl)cc1)NCC1CN(C(=O)CCc2ccc(Cl)cc2)C1", "note": "[Example 2, 2-(4-chlorophenoxy)-N-((1-(3-(4-chlorophenyl)propanoyl)azetidin-3-yl)methyl)acetamide]", "values": [{"measurement": "pIC50", "value": "6.00 to 7.00"}]}, {"molecule": "O=C(COc1ccc(Cl)cc1)NCC1CN(C(=O)C2CC2c2ccc(Cl)cc2)C1", "note": "(centres unmarked) [Example 3, 2-(4-chlorophenoxy)-N-((1-(2-(4-chlorophenyl)cyclopropane-1-carbonyl)azetidin-3-yl)methyl)acetamide]", "values": [{"measurement": "pIC50", "value": "6.00 to 7.00"}]}, {"molecule": "O=C(COc1ccc(Cl)cc1)NCCC1CN(C(=O)COc2ccc(Cl)cc2)C1", "note": "[Example 4, 2-(4-chlorophenoxy)-N-(2-(1-(2-(4-chlorophenoxy)acetyl)azetidin-3-yl)ethyl)acetamide]", "values": [{"measurement": "pIC50", "value": "6.00 to 7.00"}]}, {"molecule": "CC(C)(C)OCC(=O)N1CC(CNC(=O)COc2ccc(Cl)cc2)C1", "note": "[Example 5, N-((1-(2-(tert-butoxy)acetyl)azetidin-3-yl)methyl)-2-(4-chlorophenoxy)acetamide]", "values": [{"measurement": "pIC50", "value": "5.10 to 6.00"}]}, {"molecule": "O=C(COc1ccc(Cl)cc1)NCC1CN(CCCOc2ccc(Cl)cc2)C1", "note": "[Example 6, 2-(4-chlorophenoxy)-N-((1-(3-(4-chlorophenoxy)propyl)azetidin-3-yl)methyl)acetamide]", "values": [{"measurement": "pIC50", "value": "> 7.00"}]}, {"molecule": "O=C(COc1ccc(Cl)cc1)NCC1(F)CN(CCOc2ccc(Cl)cc2)C1", "note": "[Example 7, 2-(4-chlorophenoxy)-N-((1-(2-(4-chlorophenoxy)ethyl)-3-fluoroazetidin-3-yl)methyl)acetamide]", "values": [{"measurement": "pIC50", "value": "5.10 to 6.00"}]}, {"molecule": "O=C(COc1ccc(Cl)cc1)NCC1(F)CN(CCCOc2ccc(Cl)cc2)C1", "note": "[Example 8, 2-(4-chlorophenoxy)-N-((1-(3-(4-chlorophenoxy)propyl)-3-fluoroazetidin-3-yl)methyl)acetamide]", "values": [{"measurement": "pIC50", "value": "6.00 to 7.00"}]}, {"molecule": "O=C(COc1ccc(Cl)cc1)NC1CN(CCCOc2ccc(Cl)cc2)C1", "note": "[Example 9, 2-(4-chlorophenoxy)-N-(1-(3-(4-chlorophenoxy)propyl)azetidin-3-yl)acetamide]", "values": [{"measurement": "pIC50", "value": "6.00 to 7.00 and 6.97"}]}, {"molecule": "O=C(COc1ccc(Cl)cc1)NCC1(O)CN(CCCOc2ccc(Cl)cc2)C1", "note": "[Example 10, 2-(4-chlorophenoxy)-N-((1-(3-(4-chlorophenoxy)propyl)-3-hydroxyazetidin-3-yl)methyl)acetamide]", "values": [{"measurement": "pIC50", "value": "> 7.00"}]}, {"molecule": "O=C(COc1ccc(Cl)cc1)NCC1CN(CCOc2ccc(Cl)cc2)C1", "note": "[Example 11, 2-(4-chlorophenoxy)-N-((1-(2-(4-chlorophenoxy)ethyl)azetidin-3-yl)methyl)acetamide]", "values": [{"measurement": "pIC50", "value": "> 7.00 and 7.11"}]}, {"molecule": "O=C(COc1ccc(Cl)cc1)NCCC1CN(CCOc2ccc(Cl)cc2)C1", "note": "[Example 12, 2-(4-chlorophenoxy)-N-(2-(1-(2-(4-chlorophenoxy)ethyl)azetidin-3-yl)ethyl)acetamide]", "values": [{"measurement": "pIC50", "value": "> 7.00"}]}, {"molecule": "O=C(NCC1CN(CCCOc2ccc(Cl)cc2)C1)C1CCc2cc(Cl)ccc2O1", "note": "(centres unmarked) [Example 13, 6-chloro-N-((1-(3-(4-chlorophenoxy)propyl)azetidin-3-yl)methyl)chromane-2-carboxamide]", "values": [{"measurement": "pIC50", "value": "> 7.00"}]}, {"molecule": "O=C(COc1ccc(Cl)cc1)NCC1CN(CCCc2ccc(Cl)cc2)C1", "note": "[Example 14, 2-(4-chlorophenoxy)-N-((1-(3-(4-chlorophenyl)propyl)azetidin-3-yl)methyl)acetamide]", "values": [{"measurement": "pIC50", "value": "> 7.00"}]}, {"molecule": "O=C(COc1ccc(Cl)cc1)NCCC1CN(CCCc2ccc(Cl)cc2)C1", "note": "[Example 15, 2-(4-chlorophenoxy)-N-(2-(1-(3-(4-chlorophenyl)propyl)azetidin-3-yl)ethyl)acetamide]", "values": [{"measurement": "pIC50", "value": "6.00 to 7.00"}]}, {"molecule": "O=C(COc1ccc(Cl)cc1)NCC1CN(C(=O)OCCc2ccc(Cl)cc2)C1", "note": "[Example 16, 4-chlorophenethyl 3-((2-(4-chlorophenoxy)acetamido)methyl)azetidine-1-carboxylate]", "values": [{"measurement": "pIC50", "value": "6.00 to 7.00"}]}, {"molecule": "O=C(COc1ccc(Cl)cc1)NCC1CN(C(=O)OCCOc2ccc(Cl)cc2)C1", "note": "[Example 17, 2-(4-chlorophenoxy)ethyl 3-((2-(4-chlorophenoxy)acetamido)methyl)azetidine-1-carboxylate]", "values": [{"measurement": "pIC50", "value": "> 7.00"}]}, {"molecule": "O=C(COc1ccc(Cl)cc1)NCC1CN(C(=O)OCc2ccc(Cl)cc2)C1", "note": "[Example 18, 4-chlorobenzyl 3-((2-(4-chlorophenoxy)acetamido)methyl)azetidine-1-carboxylate]", "values": [{"measurement": "pIC50", "value": "> 7.00"}]}, {"molecule": "CC(C)(C)COC(=O)N1CC(CNC(=O)COc2ccc(Cl)cc2)C1", "note": "[Example 19, neopentyl 3-((2-(4-chlorophenoxy)acetamido)methyl)azetidine-1-carboxylate]", "values": [{"measurement": "pIC50", "value": "5.10 to 6.00 and 5.87"}]}, {"molecule": "O=C(COc1ccc(Cl)cc1)NCC1CN(C(=O)NCc2ccc(Cl)cc2)C1", "note": "[Example 20, N-(4-chlorobenzyl)-3-((2-(4-chlorophenoxy)acetamido)methyl)azetidine-1-carboxamide]", "values": [{"measurement": "pIC50", "value": "5.10 to 6.00"}]}, {"molecule": "O=C(COc1ccc(Cl)cc1)NCC1CN(C(CCOc2ccc(Cl)cc2)C(=O)O)C1", "note": "(centres unmarked) [Example 21, 4-(4-chlorophenoxy)-2-(3-((2-(4-chlorophenoxy)acetamido)methyl)azetidin-1-yl) butanoic acid]", "values": [{"measurement": "pIC50", "value": "6.00 to 7.00"}]}, {"molecule": "COc1ccc(N2CC(CNC(=O)COc3ccc(Cl)cc3)C2)cc1", "note": "[Example 22, 2-(4-chlorophenoxy)-N-((1-(4-methoxyphenyl)azetidin-3-yl)methyl)acetamide]", "values": [{"measurement": "pIC50", "value": "5.10 to 6.00"}]}, {"molecule": "O=C(COc1ccc(Cl)cc1)NCC1CN(c2cccnc2)C1", "note": "[Example 23, 2-(4-chlorophenoxy)-N-((1-(pyridin-3-yl)azetidin-3-yl)methyl)acetamide]", "values": [{"measurement": "pIC50", "value": "5.10 to 6.00"}]}]}
